According to patent publication US7259146B2, “Neuroprotective peptides” (Ortho-McNeil Pharmaceutical, Inc., priority 2000, dated 2007):
“Also recorded” adds a separate entry of the source.

Tests used:
[1] = tested on: bak; assay: EPO induced gene expression in PC12 cells (quantitative RT-PCR); assay type: cell-based, rat; conditions: PC-12 cells
Method: (§1) PC-12 cells (from a rat Pheochromocytoma) were cultured on poly-D-Lysine coated tissue culture plastic in DMEM containing 10% FBS and 5% Horse serum. To induce the neuronal phenotype in PC-12 cells, serum was removed and the cells were treated with NGF (50 ng/ml). Cells were grown for 7 days in the presence of the NGF then used for experiments.
(§2) PC-12 cells were cultured as described in Example 1 in a 10 cm poly-D-lysine coated tissue culture dish. Cells were incubated in the presence of 1 U/ml of EPO for 24 hr. Total RNAn was then isolated using a Qiagen RNAeasy mini prep kit and used for RT-PCR.
(§3) Real time reverse transcription and PCR were performed in a single reaction using a light cycler and an RNA amplification kit from Roche Molecular Biochemicals. RNA was quantitated and added in equal amounts to reaction mix that includes the dsDNA specific dye SYBR green I. Specific PCR reaction products are quantitated by detecting the amount of fluorescence in the reaction at each PCR cycle. Final analysis was performed using the data analysis software included with the light cycler instrument.

[2] = tested on: bclXL; assay: as above; assay type: cell-based, rat; conditions: PC-12 cells
Method: as §1, §2, §3

[3] = tested on: PC-12 cells; assay: NGF withdrawal in PC-12 cells; assay type: cell-based, rat; conditions: for protection against NGF withdrawal-induced cell death (in words): treated 24 hr before NGF removal, viable cells at 12, 24, 48, 72 hr
Method: as §1
PC-12 cells were cultured as described above in a 96 well poly-d-lysine coated multi-well plate and treated with rhEPO (1 pm to 10 nm) for 24 hr prior to NGF withdrawal. On the day of the experiment the cells were washed with buffer 3 times to remove NGF and then cultured in fresh media without NGF. Immediately following NGF washout cells were counted (t=0) to determine the number of living cells. Cell viability was based on morphological characteristics including phase brightness, presence of axons, and absence of blebbing. Cell counts were performed at 12 hr, 24 hr, 48 hr and 72 hr and the number of viable cells were scored.

[4] = tested on: spontaneous hypertensive rats rendered ischemic; assay: Experimental model of cerebral ischemia (tandem CCA/MCA occlusion), infarct volume; assay type: in vivo, rat
Method: Male spontaneous hypertensive rats (Charles River) weighing between 250–300 g were weighed and then anesthetized with ketamine (100 mg/ml)/xylazine (20 mg/ml) cocktail (1.2 ml/kg; i.p.). The level of anesthetic was assessed by corneal reflex (air puff to eye) and leg jerk in response to tail or foot pinch. Once the rat was anesthetized, it was placed on a small animal surgical board and restrained during the surgical procedure. The rat's body temperature was monitored continuously with a rectal probe and maintained at 37° C. with a homeostatic heating pad.
Rats were rendered ischemic by tandem occlusion of the left common carotid artery and the left middle cerebral artery for 2 h followed by 22 h of reperfusion using a modification of the technique described by Brint and co-workers (J. Cereb Blood Flow Metab 8:474–485, 1988). Specifically, the left CCA was isolated through an incision in the ventral surface of the neck. For isolation of the ipsilateral MCA, a second incision was made between the lateral canthus of the left eye and the corresponding external auditory canal to bare the underlying skull. […]
Twenty-hours prior to the onset of ischemia, an osmotic mini-pump (Model 1003D; Alza) filled with vehicle or EPO was placed between the scapula of the rat. […] Twenty-two hours later, the rats were evaluated for behavioral performance, a blood sample was collected for terminal plasma levels of EPO and then the rat was euthanized, brain removed, sectioned and stained for histological analysis.
(§4) On Day One, the rats were rendered ischemic as described above. […] Twenty-two hours later, the rats were evaluated for behavioral performance, a blood sample was collected for terminal plasma levels of EPO and then the rat was euthanized, brain removed, sectioned and stained for histological analysis.
as §4, with “analysis. […]” for “analysis.”

[5] = 1 nm EPO for 24 hr (FIG. 3 legend)

EPO: purified, recombinant human EPO (rhEPO), formulated and distributed under the trademarks EPREX, ERYPO or PROCRIT
decrease in the expression of the pro-apoptotic Bak [1, 5]: greater than 5 fold
decrease in the expression of the pro-apoptotic gene, bak ([1]; EPO 1 U/ml for 24 hr): 5 fold
increase in the expression of the anti-apoptotic gene, bclXL [2, 5]: 6 fold
increase in the expression of the anti-apoptotic gene, bclXL ([2]; EPO 1 U/ml for 24 hr): 6 fold
optimum / peak concentration for the neuroprotective effect ([3]; growth factor withdrawal): 10 pm
neuroprotective effect at 1 nm ([3]; growth factor withdrawal, 1 nm): no significant effect
dose response curve for the neuroprotective effect ([3]; growth factor withdrawal, protection decreasing above 10 pm): bi-phasic
protection against NGF withdrawal-induced cell death (in words) [3]: significant decrease in cell death; also recorded: increased the number of viable cells at each time point
protection against NGF withdrawal-induced cell death (in words) ([3]; listed as rhEPO): protects rat PC12 cells against NGF withdrawal-induced cell death
infarct volume / protection against ischemic injury ([4]; Study I: 132 or 1321 U/day continuous iv infusion via osmotic mini-pump, started before ischemia): significantly reduced infarct volume; also recorded: protects against ischemic injury
protection against ischemic damage ([4]; Study II: single iv bolus 15 min post-occlusion, 1000, 2500 or 5000 U/kg): did not protect against ischemic damage; also recorded: does not protect against ischemic injury
infarct volume / protection against ischemic injury ([4]; Study III: repeat iv bolus 2500 U/kg at 15 min, 2 h, 4 h and 6 h post-occlusion): significant decrease in infarct volume; also recorded: protects against ischemic injury
